Measured values from patent US7989464B2, “mGluR1 antagonists as therapeutic agents” (Schering Corporation, priority 2004, dated 2011).
Like-named read-outs stand apart in the source and are kept apart here.

Molecular target: T1, hmGluR1 receptor (Homo sapiens, UniProt Q13255)
T1 construct: expressed in transfected cells
Assay: IC50 determination: intracellular calcium mobilization (FLIPR) upon Quisqualate stimulation in CHO cells stably expressing hmGluR1
Type: cell-based
Conditions: against Quisqualate 1 μM (EC80)
Procedure: A CHO cell line stably expressing hmGluR1 receptor was established. One day prior to assay, cells were split in growth media at concentration of 50,000 cells/well in a volume of 100 μl and seeded into black clear-bottom 96-well plates. After two to six hours, when cells were well attached to the plate, growth medium was replaced with assay medium (100 μL) consisting of DMEM high glucose, supplemented with GPT (1 U/mL) and Sodium pyruvate, 1 mM. Following overnight incubation, medium was discarded and cells were loaded for 2 h with dye from the Calcium 3 Assay Reagent Kit (Molecular Devices, # R8033), prepared according to manufacturers' instructions. […] Test compounds were added 10 minutes before Quisqualate.

[1] = FLIPR calcium mobilization, read-out: IC50 Class
[2] = class symbols, read-out: mGIuR 1 IC50
[3] = FLIPR calcium mobilization, read-out: mGluR1 IC50

T1 sequence (Q13255 19-1194): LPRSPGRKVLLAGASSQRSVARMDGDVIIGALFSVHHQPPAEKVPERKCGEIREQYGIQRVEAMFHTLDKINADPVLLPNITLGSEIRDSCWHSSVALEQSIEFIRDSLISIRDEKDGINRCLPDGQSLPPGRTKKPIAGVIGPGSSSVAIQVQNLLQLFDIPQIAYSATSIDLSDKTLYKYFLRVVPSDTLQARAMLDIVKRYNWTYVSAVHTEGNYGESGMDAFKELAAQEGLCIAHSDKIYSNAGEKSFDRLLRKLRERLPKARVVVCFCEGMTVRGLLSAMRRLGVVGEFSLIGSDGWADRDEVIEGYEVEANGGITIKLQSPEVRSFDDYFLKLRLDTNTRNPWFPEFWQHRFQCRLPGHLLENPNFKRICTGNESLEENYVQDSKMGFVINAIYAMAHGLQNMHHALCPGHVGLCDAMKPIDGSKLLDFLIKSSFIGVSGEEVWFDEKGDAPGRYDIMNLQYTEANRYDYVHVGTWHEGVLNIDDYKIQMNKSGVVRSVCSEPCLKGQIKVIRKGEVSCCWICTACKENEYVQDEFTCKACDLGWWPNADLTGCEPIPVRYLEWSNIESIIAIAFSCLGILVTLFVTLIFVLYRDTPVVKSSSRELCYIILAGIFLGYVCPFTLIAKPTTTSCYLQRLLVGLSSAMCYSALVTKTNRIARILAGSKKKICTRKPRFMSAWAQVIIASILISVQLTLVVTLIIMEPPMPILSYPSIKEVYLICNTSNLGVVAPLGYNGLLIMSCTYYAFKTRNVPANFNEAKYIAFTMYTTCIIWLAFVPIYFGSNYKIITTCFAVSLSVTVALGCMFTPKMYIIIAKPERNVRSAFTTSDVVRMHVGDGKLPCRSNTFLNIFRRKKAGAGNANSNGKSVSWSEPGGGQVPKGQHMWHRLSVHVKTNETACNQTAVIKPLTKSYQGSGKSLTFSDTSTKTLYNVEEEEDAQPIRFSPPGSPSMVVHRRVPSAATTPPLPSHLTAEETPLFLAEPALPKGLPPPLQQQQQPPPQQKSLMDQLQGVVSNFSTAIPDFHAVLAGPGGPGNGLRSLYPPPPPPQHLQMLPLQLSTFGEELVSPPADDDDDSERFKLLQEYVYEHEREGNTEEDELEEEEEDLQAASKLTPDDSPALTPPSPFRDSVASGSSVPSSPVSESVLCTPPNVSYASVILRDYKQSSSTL

Compound	IC50 [1] [nM]	IC50 [2] [nM]	further results
CC(C)(O)c1ccnc2sc3c(=O)n(-c4ccc(Cl)cc4)cnc3c12 [compound 186]	> 1000	–	–
Cc1ccc(-n2cnc3c(sc4ncc(N)cc43)c2=O)cc1 [147A]	–	150 to 1000	–
O=c1c2sc3nccc(N4CCCC4)c3c2ncn1-c1ccc(F)cc1 [28GW]	150 to 1000	–	–
CN(C)c1ccnc2c1c1ncn(-c3ccc(OC(F)F)cc3)c(=O)c1n2C [134D]	–	> 1000	–
COc1ccnc2sc3c(=O)n(-c4ccc5c(c4)OCO5)cnc3c12 [28FY]	> 1000	–	–
CN(C)c1ccnc2sc3c(=O)n(C4CCCC(C(=O)O)C4)cnc3c12 (centres unmarked) [28EJ]	> 1000	–	–
CCCN(C)c1ccnc2sc3c(=O)n(C4CCCCC4)cnc3c12 [28AN]	–	< 50	–
Cc1ccc(-n2cnc3c(sc4nccc(NC[C@@H](C)O)c43)c2=O)cc1 [29A]	–	150 to 1000	–
C#CC(CC)(CC)Nc1ccnc2sc3c(=O)n(-c4ccc(C)cc4)cnc3c12 [28EU]	150 to 1000	–	–
COc1ccc2nc(-n3cnc4c(sc5nccc(N(C)C)c54)c3=O)sc2c1 [7BP]	–	> 1000	–
CC(=O)NN(C)c1ccnc2sc3c(=O)n(-c4ccc(C)cc4)cnc3c12 [73I]	150 to 1000	–	–
CN(C)c1c(Br)cnc2sc3c(=O)n(C4CCCCC4)cnc3c12 [compound 43]	–	150 to 1000	–
CNc1cccc2sc3c(=O)n(-c4ccc(Cl)cc4)cnc3c12 [103R]	150 to 1000	–	–
CN(C)c1ccnc2sc3c(=O)n(CC4CC4)cnc3c12 [15B]	–	150 to 1000	–
CCc1nc2c(sc3nccc(N(C)C)c32)c(=O)n1-c1ccc(OC)cc1 [116E]	–	50 to 150	–
Nc1c(Br)cnc2sc3c(=O)n(-c4ccc(Cl)cc4)cnc3c12 [compound 196]	< 50	–	–
CC(=O)c1ccnc2sc3c(=O)n(-c4ccc(Cl)cc4)cnc3c12 [compound 184]	50 to 150	–	–
Cc1ccc(-n2cnc3c(sc4nccc(NCC5CC5)c43)c2=O)cc1 [28AY]	–	150 to 1000	–
Cc1ccc(-n2cnc3c(sc4cnnc(NC5CC5)c43)c2=O)cc1 [167A]	150 to 1000	–	–
COc1ccc(-n2cnc3c(sc4nccc(NC5CC5)c43)c2=O)cc1Cl [131K]	> 1000	–	–
O=c1c2sc3nccc(NC4CC4)c3c2ncn1-c1ccc(C2CC2)cc1 [137I]	150 to 1000	–	–

Compound	IC50 [1] [nM]	IC50 [2] [nM]	further results
O=c1c2sc3nccc(N4CCCCC4)c3c2ncn1-c1ccc(Cl)cc1 [28GH]	> 1000	–	–
CN(C)c1c(-c2cccc(C#N)c2)cnc2sc3c(=O)n(C4CCCCC4)cnc3c12 [47A]	–	150 to 1000	–
Cc1ccc(-n2cnc3c(sc4nccc(NCCO)c43)c2=O)cc1 [28AV]	–	< 50	–
CN(c1ncnc2sc3c(=O)n(-c4ccc(Br)cc4)cnc3c12)C1CC1 [95DV]	< 50	–	IC50 [3]: 1.94 nM
O=c1c2sc3nccc(C4CC4)c3c2ncn1-c1ccc(Cl)cc1 [compound 187]	< 50	–	–
CCC(=O)Nc1ccnc2sc3c(=O)n(C4CCCCC4)cnc3c12 [73A]	–	> 1000	–
CNc1c(C#N)cnc2sc3c(=O)n(C4CCCCC4)cnc3c12 [compound 48]	–	150 to 1000	–
CCNc1ccnc2sc3c(=O)n(-c4ccc(Cl)cc4)cnc3c12 [28HZ]	< 50	–	IC50 [3]: 1.22 nM
CN(C)c1ccnc2sc3c(=O)n(-c4ccc(OC(F)(F)F)cc4)cnc3c12 [7Y]	–	< 50	–
CCN(CC)C(=O)N1CCN(c2ccnc3sc4c(=O)n(C5CCCCC5)cnc4c23)CC1 [compound 64]	–	> 1000	–
Cc1ccc(-n2cnc3c(sc4nccc(NC5CCCCC5)c43)c2=O)cc1 [28DF]	> 1000	–	–
Cc1nc2c(sc3nccc(N(C)C)c32)c(=O)n1-c1ccccc1 [113B]	–	< 50	–
Cc1ccc(-n2cnc3c(sc4nccc(N(C)C)c43)c2=O)cc1 [7BF]	–	< 50	–
COc1ccc(-n2cnc3c(sc4nccc(OC)c43)c2=O)cc1 [25B]	–	150 to 1000	–
CN(C)c1ccnc2sc3c(=O)n(-c4ccccc4Cl)cnc3c12 [7F]	–	50 to 150	–
CCCOc1ccc(-n2cnc3c(sc4nccc(N(C)C)c43)c2=O)cc1 [7AG]	–	> 1000	–
COc1ccc(-n2cnc3c(sc4ncc(C#N)c(N)c43)c2=O)cc1 [compound 194]	150 to 1000	–	–
CCCN(C)c1ccnc2sc3c(=O)n(-c4ccc(C)cc4)cnc3c12 [28AT]	–	< 50	–
CN(C)c1cccc2sc3c(=O)n(C4CCCCC4)cnc3c12 [103B]	–	150 to 1000	–
C=CCNc1ncnc2sc3c(=O)n(-c4ccc5scnc5c4)cnc3c12 [95BM]	< 50	–	–
CN(C)c1cccc2sc3c(=O)n(-c4ccc(F)cc4)cnc3c12 [103N]	150 to 1000	–	–

Compound	IC50 [1] [nM]	IC50 [2] [nM]	further results
CCNc1ccnc2sc3c(=O)n(-c4cccc(Cl)c4)cnc3c12 [28CD]	< 50	–	–
O=c1c2sc3ncnc(Nc4ccccc4)c3c2ncn1-c1ccc(Cl)cc1 [95FX]	150 to 1000	–	–
COc1cccc2sc3c(=O)n(-c4ccc(Cl)cc4)cnc3c12 [103S]	150 to 1000	–	–
CC(=O)Nc1ccc(-n2cnc3c(sc4nccc(N(C)C)c43)c2=O)cc1 [7AL]	–	> 1000	–
COc1ccc(NC(=O)CSc2nc3c(sc4nc(C)cc(C)c43)c(=O)n2-c2ccc(Cl)cc2)cc1 [P-6]	–	150 to 1000	–
CN(C)c1ccnc2sc3c(=O)n(-c4ccc(Br)cc4)cnc3c12 [7H]	–	< 50	–
CNc1ccnc2sc3c(=O)n(-c4cccc(Cl)c4)cnc3c12 [28CC]	50 to 150	–	–
CN(C)c1cccc2sc3c(=O)n(-c4cc(F)cc(F)c4)cnc3c12 [103Q]	150 to 1000	–	–
C=CCNc1ccnc2sc3c(=O)n(-c4ccc(Cl)cc4)cnc3c12 [28DY]	50 to 150	–	–
CN(C)c1cccc2sc3c(=O)n(-c4ccccc4)cnc3c12 [103C]	–	150 to 1000	–
CN(C)c1ccnc2sc3c(=O)n(-c4ccc5occc5c4)cnc3c12 [7BY]	–	< 50	–
CCCc1ccc(-n2cnc3c(sc4nccc(N(C)C)c43)c2=O)cc1 [7BK]	–	150 to 1000	–
COc1ccc(-n2cnc3c(sc4nc(C)cc(N(C)C)c43)c2=O)cc1F [7CL]	–	50 to 150	–
CCOC(=O)C1CCCC(n2cnc3c(sc4nccc(OC)c43)c2=O)C1 (centres unmarked) [28EK]	> 1000	–	–
COc1ccc(-n2c(C)nc3c(sc4nccc(N(C)C)c43)c2=O)cc1 [116D]	–	< 50	–
C=CCc1cnc2sc3c(=O)n(-c4ccc(Cl)cc4)cnc3c2c1N [178B]	< 50	–	IC50 [3]: 1.46 nM
CCNc1ncnc2sc3c(=O)n(-c4ccc(OC(F)F)cc4)cnc3c12 [95W]	–	< 50	–
CCOC(=O)N1CCC(n2cnc3c(sc4nccc(N(C)C)c43)c2=O)CC1 [7J]	–	> 1000	–
Cc1cccc(-n2cnc3c(sc4nccc(N(C)C)c43)c2=O)n1 [7CX]	–	50 to 150	–
CN(C)c1c(Cl)cnc2sc3c(=O)n(-c4ccc(Cl)cc4)cnc3c12 [compound 199]	< 50	–	–
O=c1c2sc3nccc(NC4CCCCC4)c3c2ncn1-c1ccc(OC(F)(F)F)cc1 [28F]	–	> 1000	–

Compound	IC50 [1] [nM]	IC50 [2] [nM]	further results
O=c1c2sc3nccc(N4CC[C@@H](O)C4)c3c2ncn1C1CCCCC1 [28M]	–	> 1000	–
CCNc1ccnc2sc3c(=O)n(-c4ccccc4)c(C)nc3c12 [113F]	–	< 50	–
O=c1c2sc3nccc(NC4CC4)c3c2ncn1-c1ccc(O)cc1 [28HS]	< 50	–	–
CNc1ccnc2sc3c(=O)n(-c4ccc(Cl)cc4)cnc3c12 [compound 193]	< 50	–	IC50 [3]: 0.18 nM
Cc1ccc(-n2cnc3c(sc4nc(C)nc(N)c43)c2=O)cc1 [95ET]	< 50	–	–
C#CCN(C)c1ccnc2sc3c(=O)n(-c4ccc(C)cc4)cnc3c12 [28AB]	–	< 50	–
O=c1c2sc3nccc(Cl)c3c2ncn1-c1ccc(Cl)cc1 [57E]	150 to 1000	–	–
O=c1c2sc3ncnc(NC4CCC4)c3c2ncn1-c1ccc(F)cc1 [95DF]	150 to 1000	–	–
CN(C)c1ncnc2sc3c(=O)n(-c4ccc(C5CC5)cc4)cnc3c12 [137D]	< 50	–	–
COC(=O)c1sccc1-n1cnc2c(sc3nccc(N(C)C)c32)c1=O [7AU]	–	> 1000	–
CCN(C)c1ccnc2sc3c(=O)n(-c4ccc(C)cc4)cnc3c12 [28AK]	–	< 50	–
COc1cc(O)nc2sc3c(=O)n(C4CCCCC4)cnc3c12 [compound 80]	–	> 1000	–
C#CCNc1ncnc2sc3c(=O)n(-c4ccc(F)cc4)cnc3c12 [95ER]	< 50	–	–
CCNc1ccnc2sc3c(=O)n(-c4ccc(CC)cc4)cnc3c12 [131F]	–	50 to 150	–
O=c1c2sc3nccc(NCCO)c3c2ncn1-c1ccc(F)cc1 [28GC]	50 to 150	–	–
CN(C)c1cc(Cl)nc2sc3c(=O)n(C4CCCCC4)cnc3c12 [compound 83]	–	50 to 150	–
CCN(C)c1ncnc2sc3c(=O)n(-c4ccc(C(F)(F)F)cc4)cnc3c12 [95Y]	–	< 50	–
CCN(C)c1ncnc2sc3c(=O)n(-c4ccc(SC)cc4)cnc3c12 [95L]	–	< 50	–
CN(C)c1ccnc2sc3c(=O)n(N4CC5CCCC5C4)cnc3c12 (centres unmarked) [60E]	–	< 50	–
